What all share (format): cell-based, HCV
The subject of experiment [1] is genotype 1b (Con1) dicistronic subgenomic replicon. Description: Transient replicon assay, genotype 1b. The conditions noted are these: Huh7-Lunet cells transfected with replicon RNA, cultured 4 days, luciferase activity. As for the experimental part: (§1) The transient replicon assay utilizes the genotype 1b (Con1) dicistronic subgenomic replicon. Genotype 1a activity was determined using a chimeric replicon containing the genotype 1b sequence for NS3 through NS5A nonstructural proteins and genotype 1a (H77) sequence for the NS5B region.
(§2) The RNA transcripts were generated using the Megascript T7 kit (Applied Biosystems, Foster City, Calif.). Exponentially growing Huh7-Lunet cells were mixed with 4 μg of replicon RNA and plated into a 96-well plate Gene Pulser MXcell Electroporation System (Bio-Rad, Hercules, Calif.). Electroporation was immediately performed at 250 V and 750 μF capacitance with a single exponential waveform pulse. Transfected cells were transferred to Dulbecco modified Eagle medium in the presence of 10% FBS and plated into 96-well plates with 7,500 cells per well. Compounds at various concentrations were added to the cells after 2 hours and were cultured for 4 days. The cells were lysed with the Bright-Glo Reagent (Promega, Madison, Wis.) and luciferase activity was measured with a luminometer (Wallac 1420 Multilabel HTS Counter Victor 2). The background control was replicon cells treated with 100 nM BILN-2061, an inhibitor of the HCV protease. Dose responses were performed in triplicate and the values were averaged. All experiments were repeated at least three times to verify the reproducibility.
(§3) The EC50 values were determined using a standard four-parameter dose response equation.

The nature of experiment [2]: Transient replicon assay, genotype 1a chimeric replicon. The conditions noted are these: Hepatitis C virus, genotype 1a / genotype 1b, Huh-7, 96 h, read-out: EC50 1a, Huh7-Lunet cells transfected with chimeric replicon RNA, cultured 4 days, luciferase activity. As for the experimental part:
as §1, §2, §3

The test system of experiment [3] is chimeric replicon containing the genotype 1b sequence for NS3 through NS5A and genotype 1a (H77) sequence for the NS5B region. Described as above. The protocol:
as §1, §2, §3

Read-outs that look alike come from different tables or passages of the source. A value given as a limit tells only on which side of the number the result lay.

On to `CS(=O)(=O)Nc1ccc2c(c1)S(=O)(=O)N=C(C1=C(O)[C@@H]3C4C5C6CC7C4C7C(C65)[C@@H]3N(Cc3ccc(F)cc3)C1=O)N2` (racemic) [Example 1, rac-N-{3-[(4S,9R)-5-[(4-Fluorophenyl)methyl]-8-hydroxy-6-oxo-5-azahexacyclo[8.5.0.0^2,15.0^3,12.0^4,9.0^11,13]pentadec-7-en-7-yl]-1,1-dioxo-4H-1λ^6,2,4-benzothiadiazin-7-yl}methanesulfonamide], for which the EC50 in experiment [1] (Hepatitis C virus, Huh-7, 96 h) came out at 2 nM; in experiment [2], 12 nM.
As to `CS(=O)(=O)NCc1csc2c1S(=O)(=O)N=C(C1=C(O)[C@@H]3C4C5C6CC7C4C7C(C65)[C@@H]3N(Cc3ccc(F)cc3)C1=O)N2` (racemic) [Example 4, rac-N-({3-[(4S,9R)-5-[(4-Fluorophenyl)methyl]-8-hydroxy-6-oxo-5-azahexacyclo[8.5.0.0^2,15.0^3,12.0^4,9.0^11,13]pentadec-7-en-7-yl]-1,1-dioxo-4H-1λ^6,5,2,4-thieno[2,3-e][1λ^6,2,4]thiadiazin-7-yl}methyl)methanesulfonamide], the concentration for a half-maximal effect (EC50) in experiment [1] came to 1 nM; in experiment [3] (Huh7-Lunet cells transfected with chimeric replicon RNA, cultured 4 days, luciferase activity; read-out: EC50 1a), 42 nM.
Consider `CS(=O)(=O)Nc1ccc2c(c1)S(=O)(=O)N=C(C1=C(O)[C@@H]3C4CC5CC(C4)CC(C5)[C@@H]3N(Cc3ccc(F)cc3)C1=O)N2` (racemic) [Example 5, rac-N-{3-[(2S,7R)-3-[(4-Fluorophenyl)methyl]-6-hydroxy-4-oxo-3-azatetracyclo[8.3.1.1^8,12.0^2,7]pentadec-5-en-5-yl]-1,1-dioxo-4H-1λ^6,2,4-benzothiadiazin-7-yl}methanesulfonamide], for which the EC50 in experiment [1] (Hepatitis C virus, Huh-7, 96 h) was determined as 11 nM; in experiment [2] it was 193 nM.
For the compound `CS(=O)(=O)NCc1csc2c1S(=O)(=O)N=C(C1=C(O)[C@@H]3C4CC5CC(C4)CC(C5)[C@@H]3N(Cc3ccc(F)cc3)C1=O)N2` (racemic) [Example 6, rac-N-({3-[(2S,7R)-3-[(4-Fluorophenyl)methyl]-6-hydroxy-4-oxo-3-azatetracyclo[8.3.1.1^8,12.0^2,7]pentadec-5-en-5-yl]-1,1-dioxo-4H-1λ^6,5,2,4-thieno[2,3-e][1λ^6,2,4]thiadiazin-7-yl}methyl)methanesulfonamide], the EC50 in experiment [1] (Hepatitis C virus, Huh-7, 96 h) was determined as 42 nM; in experiment [2], 696 nM.
For `CS(=O)(=O)Nc1ccc2c(c1)S(=O)(=O)N=C(C1=C(O)[C@@H]3C4C5CC6C4C6C5[C@@H]3N(Cc3ccc(F)cc3)C1=O)N2` (mixture of isomers) [Example 7, rac-N-{3-[(1R,9S)-10-[(4-Fluorophenyl)methyl]-13-hydroxy-11-oxo-10-azapentacyclo[7.4.0.0^2,7.0^3,5.0^4,8]tridec-12-en-12-yl]-1,1-dioxo-4H-1λ^6,2,4-benzothiadiazin-7-yl}methanesulfonamide], the concentration for a half-maximal effect (EC50) in experiment [1] (Hepatitis C virus, Huh-7, 96 h) was 4 nM; in experiment [3] (read-out: EC50 1a; Huh7-Lunet cells transfected with chimeric replicon RNA, cultured 4 days, luciferase activity) it was 137 nM.
`CS(=O)(=O)NCc1csc2c1S(=O)(=O)N=C(C1=C(O)[C@@H]3C4C5CC6C4C6C5[C@@H]3N(Cc3ccc(F)cc3)C1=O)N2` (mixture of isomers) [Example 9, rac-N-({3-[(1R,9S)-10-[(4-Fluorophenyl)methyl]-13-hydroxy-11-oxo-10-azapentacyclo[7.4.0.0^2,7.0^3,5.0^4,8]tridec-12-en-12-yl]-1,1-dioxo-4H-1λ^6,5,2,4-thieno[2,3-e][1λ^6,2,4]thiadiazin-7-yl}methyl)methanesulfonamide]: the concentration giving a half-maximal response (EC50) in experiment [1] (Hepatitis C virus, Huh-7, 96 h) came out at 5 nM; in experiment [2], 171 nM.
Turning to `CS(=O)(=O)Nc1ccc2c(c1)S(=O)(=O)N=C(C1=C(O)C3C4C5C6C7C4C7C(C56)C3N(Cc3ccc(F)cc3)C1=O)N2` (racemic) [Example 10, rac-N-{3-[(1R,10S)-11-[(4-Fluorophenyl)methyl]-14-hydroxy-12-oxo-11-azahexacyclo[8.4.0.0^2,70.0^3,5.0^4,9.0^6,8]tetradec-13-en-13-yl]-1,1-dioxo-4H-1λ^6,2,4-benzothiadiazin-7-yl}methanesulfonamide], the EC50 was 1 nM in experiment [1] (Hepatitis C virus, Huh-7, 96 h) and 8 nM in experiment [2].
On to `CS(=O)(=O)NCc1csc2c1S(=O)(=O)N=C(C1=C(O)C3C4C5C6C7C4C7C(C56)C3N(Cc3ccc(F)cc3)C1=O)N2` (racemic) [Example 13, rac-N-({3-[(1R,10S)-11-[(4-Fluorophenyl)methyl]-14-hydroxy-12-oxo-11-azahexacyclo[8.4.0.0^2,7.0^3,5.0^4,9.0^6,8]tetradec-13-en-13-yl]-1,1-dioxo-4H-1λ^6,5,2,4-thieno[2,3-e][1λ^6,2,4]thiadiazin-7-yl}methyl)methanesulfonamide], for which the EC50 in experiment [1] (Hepatitis C virus, Huh-7, 96 h) came out at 2 nM; in experiment [2], 36 nM.
On the same counts, the results for `CS(=O)(=O)Nc1ccc2c(c1)S(=O)(=O)N=C(C1=C(O)C3C4C5C6C4C4C6C5C4C3N(Cc3ccc(F)cc3)C1=O)N2` (racemic) [Example 14, rac-N-{3-[(1R,10S)-11-[(4-fluorophenyl)methyl]-14-hydroxy-12-oxo-11-azahexacyclo[8.4.0.0^2,5.0^3,8.0^4,7.0^6,9]tetradec-13-en-13-yl]-1,1-dioxo-4H-1λ^6,2,4-benzothiadiazin-7-yl}methanesulfonamide] are 2 nM and 43 nM.
In experiment [1] (Hepatitis C virus, Huh-7, 96 h), `CS(=O)(=O)NCc1csc2c1S(=O)(=O)N=C(C1=C(O)C3C4C5C6C4C4C6C5C4C3N(Cc3ccc(F)cc3)C1=O)N2` (racemic) [Example 15, rac-N-({3-[(1R,10S)-11-[(4-fluorophenyl)methyl]-14-hydroxy-12-oxo-11-azahexacyclo[8.4.0.0^2,5.0^3,8.0^4,7.0^6,9]tetradec-13-en-13-yl]-1,1-dioxo-4H-1λ^6,5,2,4-thieno[2,3-e][1λ^6,2,4]thiadiazin-7-yl}methyl)methanesulfonamide] showed an EC50 of 13 nM.
For the compound `CS(=O)(=O)Nc1ccc2c(c1)S(=O)(=O)N=C(C1=C(O)[C@@H]3C4C5C6CC7C4C7C(C65)[C@@H]3N(Cc3ccc(F)cc3)C1=O)N2` [Example 2, N-{3-[(4S,9R)-5-[(4-Fluorophenyl)methyl]-8-hydroxy-6-oxo-5-azahexacyclo[8.5.0.0^2,15.0^3,12.0^4,9.0^11,13]pentadec-7-en-7-yl]-1,1-dioxo-4H-1λ^6,2,4-benzothiadiazin-7-yl}methanesulfonamide], the EC50 was determined as 1 nM in experiment [1] (Hepatitis C virus, Huh-7, 96 h) and 8 nM in experiment [2].
With `CS(=O)(=O)Nc1ccc2c(c1)S(=O)(=O)N=C(C1=C(O)[C@H]3C4C5C6CC7C(C74)C(C65)[C@H]3N(Cc3ccc(F)cc3)C1=O)N2` [Example 3, N-{3-[(4R,9S)-5-[(4-Fluorophenyl)methyl]-8-hydroxy-6-oxo-5-azahexacyclo[8.5.0.0^2,15.0^3,12.0^4,9.0^11,13]pentadec-7-en-7-yl]-1,1-dioxo-4H-1λ^6,2,4-benzothiadiazin-7-yl}methanesulfonamide], the EC50 is above 330 nM in experiment [1] (Hepatitis C virus, Huh-7, 96 h) and above 330 nM in experiment [2].
In the case of `CS(=O)(=O)Nc1ccc2c(c1)S(=O)(=O)N=C(C1=C(O)[C@@H]3C4C5C6C7C4C7C(C65)[C@@H]3N(Cc3ccc(F)cc3)C1=O)N2` (stereo partly drawn) [Example 11, N-{3-[(1R,10S)-11-[(4-Fluorophenyl)methyl]-14-hydroxy-12-oxo-11-azahexacyclo[8.4.0.0^2,7.0^3,5.0^4,9.0^6,8]tetradec-13-en-13-yl]-1,1-dioxo-4H-1λ^6,2,4-benzothiadiazin-7-yl}methanesulfonamide], the EC50 is 0.5 nM in experiment [1] (Hepatitis C virus, Huh-7, 96 h) and 4 nM in experiment [2].
For the compound `CS(=O)(=O)Nc1ccc2c(c1)S(=O)(=O)N=C(C1=C(O)[C@H]3C4C5C6C7C(C74)C(C65)[C@H]3N(Cc3ccc(F)cc3)C1=O)N2` (stereo partly shown) [Example 12], the EC50 was above 330 nM in experiment [1] (Hepatitis C virus, Huh-7, 96 h) and above 330 nM in experiment [2].
As to `CS(=O)(=O)Nc1ccc2c(c1)S(=O)(=O)N=C(C1=C(O)[C@@H]3CCC[C@@H]3N(Cc3ccc(F)cc3)C1=O)N2` [Example 17, reference compound], the EC50 in experiment [1] (Hepatitis C virus, Huh-7, 96 h) amounted to 18 nM; in experiment [2], 550 nM.
On the same counts, the results for `CS(=O)(=O)Nc1ccc2c(c1)S(=O)(=O)N=C(C1=C(O)[C@@H]3[C@H]4CC[C@H](C4)[C@@H]3N(Cc3ccc(F)cc3)C1=O)N2` [Example 18, reference compound] are 2 nM and 45 nM.
As for `CS(=O)(=O)NCc1csc2c1S(=O)(=O)N=C(C1=C(O)[C@@H]3[C@H]4CC[C@H](C4)[C@@H]3N(Cc3ccc(F)cc3)C1=O)N2` [Example 19, reference compound], the EC50 is 2 nM in experiment [1] (Hepatitis C virus, Huh-7, 96 h) and 45 nM in experiment [2].
In the case of `CS(=O)(=O)Nc1ccc2c(c1)S(=O)(=O)N=C(C1=C(O)[C@@H]3C4CCC(CC4)[C@@H]3N(Cc3ccc(F)cc3)C1=O)N2` [Example 20, reference compound], the EC50 was found to be 0.6 nM in experiment [1] (Hepatitis C virus, Huh-7, 96 h) and 12 nM in experiment [2].
On the same counts, the results for `CS(=O)(=O)Nc1ccc2c(c1)S(=O)(=O)N=C(c1c(O)c3cccn3n(Cc3ccc(F)cc3)c1=O)N2` [Example 21, reference compound] are 13 nM and 400 nM.

(Values after patent US20120321590A1, “BRIDGED POLYCYCLIC COMPOUNDS” (priority 2011, published 2012).)
